Each block holds one compound with its values, some of them ahead of it.
Legend:
[1] = system: Megoura viciae (Vetch Aphid); experiment: Test 1(b): spray of infested tic bean plants, Megoura viciae; assay type: in vivo; settings: at 50 ppm, 2 days, score 0-3 per replicate, 4 replicates (maximum 12)
Method: (§1) One or more dilutions of the compounds to be tested were made in 50% aqueous acetone.
(b) Megoura viciae (Vetch Aphid)
(§2) Potted tic bean plants previously infected with mixed stages of Megoura were sprayed to run-off using a laboratory turntable sprayer. Treated plants were held in a greenhouse for 2 days and were assessed for aphid mortality using a scoring system, judging the response in comparison with plants treated with 50% aqueous acetone alone, as controls. Each treatment was replicated 4 times.

[2] = system: Spodoptera littoralis (Egyptian Cotton Worm); experiment: Test 2: leaf disc spray test, Spodoptera littoralis larvae; assay type: in vivo; settings: foliar, application of 500 ppm, 2nd instar larvae on French bean leaf discs, sprayed
From the text: One or more of the dilutions of the compounds to be tested were made in 50% aqueous acetone.
Test species: Spodoptera littoralis (Egyptian Cotton Worm)
French bean leaf discs were set in agar in petri dishes and infected with 5 2nd instar larvae. Four replicate dishes were assigned to each treatment and were sprayed under a Potter Tower with the appropriate test dilution. After 2 days, live larvae were transferred to similar dishes containing untreated leaves set in agar. Two or three days later, the dishes were removed from the constant temperature (25° C.) room in which they had been held and the mean percentage mortalities of larvae were determined.

[3] = system: larvae of Rhipicephalus appendiculatus; experiment: Test 4: tick larvae on guinea-pigs given subcutaneous injections; assay type: in vivo; settings: for percentage survival through moulting of engorged tick larvae: recovered ticks kept at 23° C. for 14 to 21 days; for Result: ticks recovered / number of engorged ticks / Result: ticks recovered / engorgement: 4 subcutaneous injections to guinea-pigs, about 100 hours after infestation
Method: Some 20 larvae of Rhipicephalus appendiculatus were placed in plastic capsules attached to the shaved flank of guinea-pigs. After 3 hours and then at 23 hourly intervals, the guinea-pigs were given a total of 4 subcutaneous injections of the test compound. Approximately 100 hours after infestation, the guinea-pigs were killed and the engorged tick larvae recovered, counter and kept at 23° C. in a humidity cabinet for 14 to 21 days. After this period, the percentage survival through moulting was assessed.

[4] = system: Phaedon cochleariae (Mustard Beetle); experiment: Test 3 a): leaf disc spray test, Phaedon cochleariae larvae; assay type: in vivo; settings: Phaedon cochleariae, foliar, read-out: Phaedon % m 10 ppm
How it was run: (§3)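 Compounds were diluted in 50% aqueous acetone and sprayed in a Potter Tower onto turnip leaf discs in agar, each infested with 10 larvae (2nd instar Plutella, 3rd instar Phaedon), with four replicates per treatment. Mean percentage larval mortality was scored 4–5 days later at 25 °C.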

[5] = system: Megoura viciae (Vetch Aphid); experiment: Test 3 b): spray of infested tic bean plants, Megoura viciae; assay type: in vivo
Method: as §1
b) Megoura viciae (Vetch Aphid)
as §2, with “controls.” for “controls. Each treatment was replicated 4 times.”

[6] = system: Plutella xylostella (Diamond-back Moth); experiment: whole plant or invertebrate; assay type: in vivo; settings: foliar
How it was run: as §3

[7] = Dose 2.5 mg/kg at each repetition
[8] = Dose 3 mg/kg at each repetition
[9] = Dose 4 mg/kg at each repetition
[10] = Dose 5 mg/kg at each repetition

Structure (SMILES): N#Cc1nn(-c2c(Cl)cc(C(F)(F)F)cc2Cl)c(N)c1SC(Cl)(Cl)Cl [Compound 11, 5-Amino-3-cyano-1-(2,6-dichloro-4-trifluoromethylphenyl)-4-trichloromethylthiopyrazole]
score against all stages of Megoura viciae [1]: 7/12

Structure (SMILES): CC(C)[S+]([O-])c1c(C#N)nn(-c2c(Cl)cc(C(F)(F)F)cc2Cl)c1N (stereo not shown) [Compound 58, 5-Amino-3-cyano-1-(2,6-dichloro-4-trifluoromethylphenyl)-4-isopropylsulphinylpyrazole]
score against all stages of Megoura viciae [1]: 7/12

Structure (SMILES): CCCSc1c(C#N)nn(-c2c(Cl)cc(C(F)(F)F)cc2Cl)c1N [Compound 71, 5-Amino-3-cyano-1-(2,6-dichloro-4-trifluoromethylphenyl)-4-propylthiopyrazole]
score against all stages of Megoura viciae [1]: 7/12

Structure (SMILES): CC(C)Sc1c(C#N)nn(-c2c(Cl)cc(C(F)(F)F)cc2Cl)c1N [Compound 72, 5-Amino-3-cyano-1-(2,6-dichloro-4-trifluoromethylphenyl)-4-isopropylthiopyrazole]
score against all stages of Megoura viciae [1]: 7/12

Structure (SMILES): CC(C)CSc1c(C#N)nn(-c2c(Cl)cc(C(F)(F)F)cc2Cl)c1N [Compound 73, 5-Amino-3-cyano-1-(2,6-dichloro-4-trifluoromethylphenyl)-4-(2-methylpropylthio)pyrazole]
score against all stages of Megoura viciae [1]: 7/12

Structure (SMILES): CCC(C)Sc1c(C#N)nn(-c2c(Cl)cc(C(F)(F)F)cc2Cl)c1N (stereo not shown) [Compound 74, 5-Amino-3-cyano-1-(2,6-dichloro-4-trifluoromethylphenyl)-4-(1-methylpropylthio)pyrazole]
score against all stages of Megoura viciae [1]: 7/12

Structure (SMILES): C=CCSc1c(C#N)nn(-c2c(Cl)cc(C(F)(F)F)cc2Cl)c1N [Compound 75, 4-Allylthio-5-amino-3-cyano-1-(2,6-dichloro-4-trifluoromethylphenyl)pyrazole]
score against all stages of Megoura viciae [1]: 7/12

Structure (SMILES): CC(=O)Nc1c([N+](=O)[O-])c(Br)nn1-c1c(Cl)cc(C(F)(F)F)cc1Cl [Compound 102, 5-Acetamido-3-bromo-1-(2,6-dichloro-4-trifluoromethylphenyl)-4-nitropyrazole]
mortality at 500 ppm [2]: ≥ 70%

Structure (SMILES): CC(=O)Nc1c([N+](=O)[O-])c(Cl)nn1-c1c(Cl)cc(C(F)(F)F)cc1Cl [Compound 103, 5-Acetamido-3-chloro-1-(2,6-dichloro-4-trifluoromethylphenyl)-4-nitropyrazole]
mortality at 500 ppm [2]: ≥ 70%

Structure (SMILES): CC(=O)Nc1c([N+](=O)[O-])c(C#N)nn1-c1c(Cl)cc(C(F)(F)F)cc1Cl [Compound 104, 5-Acetamido-3-cyano-1-(2,6-dichloro-4-trifluoromethylphenyl)-4-nitropyrazole]
mortality at 500 ppm [2]: ≥ 70%

Structure (SMILES): N#Cc1c(C(F)(F)F)nn(-c2c(Cl)cc(C(F)(F)F)cc2Cl)c1N [Compound 113, 5-Amino-4-cyano-1-(2,6-dichloro-4-trifluoromethylphenyl)-3-trifluoromethylpyrazole]
percentage survival through moulting of engorged tick larvae ([3]; Dose 1.0 mg/kg at each repetition): only 47.9 percent survived
percentage survival through moulting of engorged tick larvae [3, 7]: only 30.0 percent survived
Result: ticks recovered / number of engorged ticks [3, 8]: reduced
percentage survival through moulting of engorged tick larvae [3, 8]: 8.3%
Result: ticks recovered / engorgement [3, 9]: No ticks recovered
Result: ticks recovered / engorgement [3, 10]: No ticks recovered
pest or weed control at 10 ppm [4]: 100%
mortality at 50 ppm ([5]; Megoura viciae, read-out: mortality of Megoura viciae): 100%
score from 4 replicates, Megoura viciae ([5]; Test 3 method (b), application of 50 ppm, score 0-3 per replicate, maximum 12): 12
mortality at 500 ppm ([6]; read-out: mortality of larvae of Plutella xylostella): 100%

Structure (SMILES): CC(=O)Nc1c(C#N)c(C#N)nn1-c1c(Cl)cc(C(F)(F)F)cc1Cl [Compound 120, 5-Acetamido-1-(2,6-dichloro-4-trifluoromethylphenyl)-3,4-dicyanopyrazole]
percentage survival through moulting of engorged tick larvae [3, 7]: only 62.5 percent survived
Result: ticks recovered / number of engorged ticks [3, 8]: Less than five engorged ticks
Result: ticks recovered / engorgement [3, 9]: No ticks recovered
Result: ticks recovered / engorgement [3, 10]: No ticks recovered

Structure (SMILES): CC(=O)Nc1c(C#N)c(C(F)(F)F)nn1-c1c(Cl)cc(C(F)(F)F)cc1Cl [Compound 133, 5-Acetamido-4-cyano-1-(2,6-dichloro-4-trifluoromethylphenyl)-3-trifluoromethylpyrazole]
Result: ticks recovered / engorgement [3, 7]: No ticks recovered
Result: ticks recovered / engorgement [3, 10]: No ticks recovered
Result: ticks recovered / engorgement ([3]; Dose 15 mg/kg at each repetition): No ticks recovered
pest or weed control at 10 ppm [4]: 100%
mortality at 100 ppm ([6]; read-out: Plutella % mortality at 100 ppm): 21%

Structure (SMILES): CC(C)(C)C(=O)Nc1c(C#N)c(C#N)nn1-c1c(Cl)cc(C(F)(F)F)cc1Cl [Compound 134, 1-(2,6-Dichloro-4-trifluoromethylphenyl)-3,4-dicyano-5-(2,2-dimethylpropionamido)-pyrazole]
Result: ticks recovered / engorgement [3, 10]: Less than five engorged ticks
Result: ticks recovered / engorgement ([3]; Dose 10 mg/kg at each repetition): No ticks recovered

melting point: 134 °C
Structure (SMILES): CC(=O)c1cn(-c2c(Cl)cc(C(F)(F)F)cc2Cl)nc1C(F)(F)F [Compound 215, 4-Acetyl-1-(2,6-dichloro-4-trifluoromethylphenyl)-3-trifluoromethylpyrazole]

melting point: 157 to 158 °C
Structure (SMILES): CC[S+]([O-])c1c(C)nn(-c2c(Cl)cc(C(F)(F)F)cc2Cl)c1N (stereo not shown) [Compound 218, 5-Amino-1-(2,6-dichloro-4-trifluoromethylphenyl)-4-ethylsulphinyl-3-methylpyrazole]

melting point: 193 °C
Structure (SMILES): CCS(=O)(=O)c1c(C)nn(-c2c(Cl)cc(C(F)(F)F)cc2Cl)c1N [Compound 222, 5-Amino-1-(2,6-dichloro-4-trifluoromethylphenyl)-4-ethylsulphonyl-3-methylpyrazole]

melting point: 145.5 to 147 °C
Structure (SMILES): CCCS(=O)(=O)c1c(C)nn(-c2c(Cl)cc(C(F)(F)F)cc2Cl)c1N [Compound 223, 5-Amino-1-(2,6-dichloro-4-trifluoromethylphenyl)-3-methyl-4-propanesulphonylpyrazole]

melting point: 100 to 102 °C
Structure (SMILES): CCCSc1c(C)nn(-c2c(Cl)cc(C(F)(F)F)cc2Cl)c1N [Compound 227, 5-Amino-1-(2,6-dichloro-4-trifluoromethylphenyl)-4-n-propylthio-3-methylpyrazole]

melting point: 49 to 50 °C
Structure (SMILES): N#CSc1c(C(F)(F)F)nn(-c2c(Cl)cc(C(F)(F)F)cc2Cl)c1N [Compound 230, 5-Amino-1-(2,6-dichloro-4-trifluoromethylphenyl)-4-thiocyanato-3-trifluoromethylpyrazole]

melting point: 133.5 °C
Structure (SMILES): Cc1nn(-c2c(Cl)cc(C(F)(F)F)cc2Cl)c(N)c1SC#N [Compound 231, 5-Amino-1-(2,6-dichloro-4-trifluoromethylphenyl)-3-methyl-4-thiocyanatopyrazole]

melting point: 270 to 272 °C
Structure (SMILES): CS(=O)(=O)c1cc(Cl)c(-n2nc(C(F)(F)F)c(C#N)c2N)c(Cl)c1 [Compound 232, 5-Amino-4-cyano-1-(2,6-dichloro-4-methanesulphonylphenyl)-3-trifluoromethylpyrazole]

melting point: 156 °C
Structure (SMILES): Cc1nn(-c2c(Cl)cc(C(F)(F)F)cc2Cl)c(N)c1SC(Cl)(Cl)Cl [Compound 233, 5-Amino-1-(2,6-dichloro-4-trifluoromethylphenyl)-3-methyl-4-trichloromethylthiopyrazole]

melting point: 168 to 169 °C
Structure (SMILES): N#Cc1c(C(F)(F)F)nn(-c2c(Cl)cc(S(=O)(=O)C(F)(F)F)cc2Cl)c1[N+](=O)[O-] [Compound 234, 4-Cyano-1-(2,6-dichloro-4-trifluoromethanesulphonylphenyl)-5-nitro-3-trifluoromethylpyrazole]

melting point: 88 to 90 °C
Structure (SMILES): FC(F)c1cn(-c2c(Cl)cc(C(F)(F)F)cc2Cl)nc1C(F)(F)F [Compound 235, 1-(2,6-Dichloro-4-trifluoromethylphenyl)-4-difluoromethyl-3-trifluoromethylpyrazole]

melting point: 97 to 100 °C
Structure (SMILES): Cc1c(C(F)(F)F)nn(-c2c(Cl)cc(C(F)(F)F)cc2Cl)c1N [Compound 236, 5-Amino-1-(2,6-dichloro-4-trifluoromethylphenyl)-4-methyl-3-trifluoromethylpyrazole]

— patent publication US6372774B1, “Derivatives of N-phenylpyrazoles” (Rhone-Poulenc Agriculture Ltd., priority 1985, dated 2002)
